Laboratory results reported in patent US20250241892A1, “5-METHOXY-N,N-[…][…] THE TREATMENT OF PSYCHOMOTOR RETARDATION” (GH RESEARCH IRELAND LIMITED, priority 2022, published 2025).

Test system: patients with postpartum depression (PPD)
Assay: Clinical trial of inhaled 5-MeO-DMT in postpartum depression
Conditions: 1 patient
Procedure: The single-arm, open-label clinical trial will involve 15 adult female patients with clinically diagnosed postpartum depression (PPD).
The second dose (12 mg) will only be administered if: • a. A peak experience (total score of ⋅75) has not been achieved following the 6 mg dose, and • b. The 6 mg dose was safe and well-tolerated according to the investigator, • c. Any psychoactive effects (PsE) of the prior dose have subsided, and • d. Pre-dose vital parameters and forced expiratory volume in one second (FEV1) are in normal range, or if outside of the normal range, are not clinically significant according to the investigator. • 3. Similarly, a third dose (18 mg) will only be administered if: • a. A peak experience (total score of ⋅75) has not been achieved following the 12 mg dose, and • b. The 12 mg dose was safe and well-tolerated according to the investigator, and • c. Any PsE of the prior dose have subsided, and • d. Pre-dose vital parameters and forced expiratory volume in one second (FEV1) are in normal range, or if outside of the normal range, are not clinically significant according to the investigator.
The patients will be assessed for a peak psychedelic experience (based on a patient-scored visual analogue scale, the PE scale), sedation, and other endpoints after dosing. Follow-up visits are planned for Day 1, and Day 7 after the dosing day.
The following criteria must be met by all patients considered for clinical trial participation: • 1. Is female and in the age range between 18 and 45 years (inclusive) at screening. • 2. Has a body mass index (BMI) in the range of 18.5 and 35 kg/m^2 (inclusive) at screening. • 3. Meets the trial criteria for PPD as assessed by a trial psychiatrist or registered psychologist: • a. Diagnosis of Major Depressive Disorder without psychotic features, confirmed by the Mini-International Neuropsychiatric Interview (MINI), with peri-partum onset that began no earlier than gestation and no later than the first 4 weeks postpartum. • b. Has a Montgomery-Åsberg Depression Rating Scale (MADRS) total score of equal to or greater than 28 at screening and pre-dose on Day 0. • 6. […] Patients must have a negative pregnancy test at screening and on the pre-test day (Day −1). • 5. Is willing to delay start of other antidepressant or anxiety medication until after the end of the trial at Day 7 and agrees to keep any psychotherapy unchanged during the trial.
A potential patient who meets any of the following key exclusion criteria will be excluded from participation in this trial: • 1. Has, based on history, psychiatric assessment, and evaluation of the MINI, a current or prior diagnosis of bipolar disorder, a manic or hypomanic episode, a psychotic disorder, Major Depressive Disorder (MDD) or other mood disorder with psychotic features, obsessive compulsive disorder, post-traumatic stress disorder (PTSD), autism spectrum disorder, borderline personality disorder, schizophrenia, delusional disorder, paranoid personality disorder, schizoaffective disorder, clinically significant intellectual disability, or any other psychiatric comorbidity that renders the patient unsuitable for the trial according to the investigator's judgment. • 2. Has one or more first or second degree relatives with a current or previously diagnosed bipolar disorder, psychotic disorder or other mood disorder (including MDD) with psychotic features. • 3. Is in the judgement of a trial psychiatrist or registered psychologist, at significant risk for suicide based on history, psychiatric assessment, and evaluation of suicidal ideation and suicidal behaviour based on the Columbia-Suicide Severity Rating Scale (C-SSRS). • 4. Has taken anti-depressive medication within 14 days or 5 half-lives (whichever is longer) prior to dosing (exception: within the last 5 weeks in the case of fluoxetine). • 5.

COc1ccc2[nH]cc(CCN(C)C)c2c1 [5-MeO-DMT]
ECG (3 hours), safety laboratory analyses (7 days), CADSS (3 hours, 1 day, 7 days): unremarkable | Reported adverse events (cramping left abdominal pain and headache, Day 0): mild, short-lasting and resolved spontaneously | Standard criteria for MADRS remission (MADRS total score equal or less than 10): fulfilled | Standard criteria for MADRS response (at least 50% improvement from baseline): fulfilled | Tolerability of the inhalation procedure: well tolerated with no inhalation-related adverse events | MADRS Apparent sadness improvement (2 hr vs baseline): 5 | MADRS Concentration Difficulties improvement (2 hr vs baseline): 0 | MADRS Inability to Feel improvement (2 hr vs baseline): 3 | MADRS Inner Tension improvement (2 hr vs baseline): 5 | MADRS Lassitude improvement (2 hr vs baseline): 3 | MADRS Pessimistic Thoughts improvement (2 hr vs baseline): 4 | MADRS Reduced Sleep improvement (2 hr vs baseline): 0 | MADRS Reduced appetite improvement (2 hr vs baseline): 0 | MADRS Reported sadness improvement (2 hr vs baseline): 4 | MADRS Suicidal Thoughts improvement (2 hr vs baseline): 0 | MADRS Concentration Difficulties score (2 hr, baseline 0): 0 | MADRS Reduced appetite score (2 hr, baseline 0): 0 | MADRS Suicidal Thoughts score (2 hr, baseline 0): 0 | MADRS Inability to Feel score (2 hr, baseline 3): 0 | MADRS Lassitude score (2 hr, baseline 3): 0 | MADRS Pessimistic Thoughts score (2 hr, baseline 4): 0 | MADRS Reported sadness score (2 hr, baseline 4): 0 | MADRS Apparent sadness score (2 hr, baseline 5): 0 | MADRS Inner Tension score (2 hr, baseline 5): 0 | MADRS Reduced Sleep score (2 hr, baseline 5): 5 | MADRS Concentration Difficulties score (Day 1, baseline 0): 0 | MADRS Reduced appetite score (Day 1, baseline 0): 0 | MADRS Suicidal Thoughts score (Day 1, baseline 0): 0 | BPRS Blunted affect score (Day 1, baseline 1): 1 | BPRS Conceptual disorganization score (Day 1, baseline 1): 1 | BPRS Disorientation score (Day 1, baseline 1): 1 | BPRS Grandiosity score (Day 1, baseline 1): 1 | BPRS Hallucinatory behaviour score (Day 1, baseline 1): 1 | BPRS Hostility score (Day 1, baseline 1): 1 | BPRS Mannerisms and Posturing score (Day 1, baseline 1): 1 | BPRS Motor retardation score (Day 1, baseline 1): 1 | BPRS Suspiciousness score (Day 1, baseline 1): 1 | BPRS Uncooperativeness score (Day 1, baseline 1): 1 | BPRS Unusual Thought Content score (Day 1, baseline 1): 1 | BPRS Excitement score (Day 1, baseline 2): 1 | MADRS Inability to Feel score (Day 1, baseline 3): 0 | MADRS Lassitude score (Day 1, baseline 3): 0 | MADRS Pessimistic Thoughts score (Day 1, baseline 4): 0 | MADRS Reported sadness score (Day 1, baseline 4): 0 | BPRS Emotional withdrawal score (Day 1, baseline 5): 1 | MADRS Apparent sadness score (Day 1, baseline 5): 0 | MADRS Inner Tension score (Day 1, baseline 5): 0 | MADRS Reduced Sleep score (Day 1, baseline 5): 0 | BPRS Depressive Mood score (Day 1, baseline 6): 1 | BPRS Guilt feelings score (Day 1, baseline 6): 1 | BPRS Somatic Concern score (Day 1, baseline 6): 1 | BPRS Tension score (Day 1, baseline 6): 1 | BPRS Anxiety score (Day 1, baseline 7): 1 | BPRS Anxiety improvement (Day 1 vs baseline): 6 | BPRS Blunted affect improvement (Day 1 vs baseline): 0 | BPRS Conceptual disorganization improvement (Day 1 vs baseline): 0 | BPRS Depressive Mood improvement (Day 1 vs baseline): 5 | BPRS Disorientation improvement (Day 1 vs baseline): 0 | BPRS Emotional withdrawal improvement (Day 1 vs baseline): 4 | BPRS Excitement improvement (Day 1 vs baseline): 1 | BPRS Grandiosity improvement (Day 1 vs baseline): 0 | BPRS Guilt feelings improvement (Day 1 vs baseline): 5 | BPRS Hallucinatory behaviour improvement (Day 1 vs baseline): 0 | BPRS Hostility improvement (Day 1 vs baseline): 0 | BPRS Mannerisms and Posturing improvement (Day 1 vs baseline): 0 | BPRS Motor retardation improvement (Day 1 vs baseline): 0 | BPRS Somatic Concern improvement (Day 1 vs baseline): 5 | BPRS Suspiciousness improvement (Day 1 vs baseline): 0 | BPRS Tension improvement (Day 1 vs baseline): 5 | BPRS Uncooperativeness improvement (Day 1 vs baseline): 0 | BPRS Unusual Thought Content improvement (Day 1 vs baseline): 0 | MADRS Apparent sadness improvement (Day 1 vs baseline): 5 | MADRS Concentration Difficulties improvement (Day 1 vs baseline): 0 | MADRS Inability to Feel improvement (Day 1 vs baseline): 3 | MADRS Inner Tension improvement (Day 1 vs baseline): 5 | MADRS Lassitude improvement (Day 1 vs baseline): 3 | MADRS Pessimistic Thoughts improvement (Day 1 vs baseline): 4 | MADRS Reduced Sleep improvement (Day 1 vs baseline): 5 | MADRS Reduced appetite improvement (Day 1 vs baseline): 0 | MADRS Reported sadness improvement (Day 1 vs baseline): 4 | MADRS Suicidal Thoughts improvement (Day 1 vs baseline): 0 | BIMF item 2 (I feel rested) score (Day 7, Day 0 score 0): 2 | BIMF item 19 (getting better at taking care of my baby) score (Day 7, Day 0 score 0): 1 | BIMF item 18 (Anxiety or worry often interferes with my mothering ability) score (Day 7, Day 0 score 2): 5 | BIMF item 16 (I worry about how other people judge me) score (Day 7, Day 0 score 3): 5 | BIMF item 13 (taking good care of my physical needs) score (Day 7, Day 0 score 4): 5 | BIMF item 4 (My baby and I understand each other) score (Day 7, Day 0 score 5): 5 | BIMF item 5 (able to relax and enjoy time with my baby) score (Day 7, Day 0 score 5): 6 | BIMF item 9 (getting enough encouragement from other people) score (Day 7, Day 0 score 5): 6 | BIMF item 10 (I trust my own feelings (instincts)) score (Day 7, Day 0 score 5): 6 | BIMF item 11 (a little time each week to do something for myself) score (Day 7, Day 0 score 5): 6 | BIMF item 15 (My baby and I are getting into a routine) score (Day 7, Day 0 score 5): 6 | BIMF item 17 (able to take care of my baby and my other responsibilities) score (Day 7, Day 0 score 5): 5 | BIMF item 1 (I am a good mother) score (Day 7, Day 0 score 6): 6 | BIMF item 3 (comfortable with the way I've chosen to feed my baby) score (Day 7, Day 0 score 6): 6 | BIMF item 6 (people in my life that I can trust to care for my baby) score (Day 7, Day 0 score 6): 6 | BIMF item 8 (getting enough adult interaction) score (Day 7, Day 0 score 6): 6 | BIMF item 12 (taking good care of my baby's physical needs) score (Day 7, Day 0 score 6): 6 | BIMF item 14 (good decisions about my baby's health and well being) score (Day 7, Day 0 score 6): 6 | BIMF item 20 (satisfied with the job I am doing as a new mother) score (Day 7, Day 0 score 6): 5 | MADRS Concentration Difficulties score (Day 7, baseline 0): 0 | MADRS Reduced appetite score (Day 7, baseline 0): 0 | MADRS Suicidal Thoughts score (Day 7, baseline 0): 0 | BPRS Blunted affect score (Day 7, baseline 1): 1 | BPRS Conceptual disorganization score (Day 7, baseline 1): 1 | BPRS Disorientation score (Day 7, baseline 1): 1 | BPRS Grandiosity score (Day 7, baseline 1): 1 | BPRS Hallucinatory behaviour score (Day 7, baseline 1): 1 | BPRS Hostility score (Day 7, baseline 1): 1
